{"source": "patent US6239107A", "about": "“Conjugates of lipophilic moieties and fragments of vasoactive intestinal peptide (VIP)” (Yeda Research & Development Co., Ltd., priority 1996, dated 2001)", "key": {"[1]": {"tested_on": "male rats (Wistar) injected i.c.v. with the cholinergic blocker AF64A", "conditions": "rat, in vivo", "method": "In vivo Model for Cholinergic Inhibition. 18 Male rats (Wistar, 250-300 g) were injected intracerebroventricularly (i.c.v.) at a rate of 0.21 μl/min., using plastic tubing (PE-20) attached to 25G needle; controls received an injection of saline 2 μl/side, experimental animals received injections of the cholinergic blocker (ethylcholine aziridium) AF64A (3 nmol/2 μl/side).\nDrug treatment was initiated 7-10 days after AF64A injection. Animals were divided into two equal groups. Test group received daily nasal administration of St-Lys-Lys-Tyr-Leu-NH2 (SEQ ID NO:6) dissolved in 10% Sefsol™ and 40% isopropanol at a concentration of 10 μg/40 μl (20 μl administered through each nostril). […]\nRats were placed in a circular pool, 1.26 m in diameter, 0.2 m deep, equipped with a clear plexiglas column, with a 13.3 cm platform reaching just below the surface of the water (22-24° C). […] The latency of reaching the platform was recorded for each rat (in seconds) and the changes over days of training were graphed, which reflect learning and memory.\nFIG. 3 depicts the effects of St-Lys-Lys-Tyr-D-Ala-NH2 (indicated KKYO in the figure) on learning and memory in the Alzheimer's in vivo test (AF64A-cholinotoxicity test) as described above. […] Following this test the platform is placed back in the water pool, but this time it is visible to the swimming rat and the time required to reach it is measured. […]"}, "[2]": {"tested_on": "rat cerebral cortical cell cultures (neurons) treated with β-amyloid peptide (amino acids 25-35)", "assay": "Neuronal survival assay, protection against β-amyloid toxicity", "format": "cell-based", "conditions": "5 days", "method": "β-Amyloid peptide is known to be involved in Alzheimer's disease and is a toxic substance to neurons grown in culture (Pike et al., J. of Nezarosci., 13(4), 1676-1687 (1993); Yankner et al., Science, 250:279-282 (1990); Gozes et. al., Proc. Natl. Acad. Sci. USA, 93:[…] (1996)).\nRat cerebral cortical cell cultures were prepared by a slight modification of the techniques described by Forsythe and Westbrook (J. Physiol. Lord. 365:515, (1988)), in which cerebral cortex was used instead of hippocampus and newborn rats were utilized instead of E16 mice. Cerebral cortical cells (1.5-15×10^5 cells/35 mm dish) were plated on confluent cerebral cortical astrocyte feeder cultures as described (Gozes et al., J. Pharmacol Erp. Therap., 257:959-966 (1991)). The culture medium was DMEM-(Dulbeco Modified Eagle Medium) containing 5% horse serum and N3 [media supplement containing a hormone cocktail, according to (Romijn et al., Brain Res., 254:(4),583-589 (1981))]. After eight days growth in vitro, the cultures were given a complete change of medium and then were treated with the β-amyloid peptide (amino acids 25-35) for 5 days.\nThe β-amyloid peptide fragment was dissolved in water to a finalconcentration of 2.5 mM. […] Neurons were counted without knowledge of type of treatment as before. […]"}, "[3]": {"tested_on": "Apolipoprotein E-deficient newborn mice", "assay": "Acquisition of developmental milestones in a model for mental retardation", "format": "in vivo", "conditions": "ApoE deficient newborn mice, s.c. injection", "method": "It has recently been discovered that mice deficient in apolipoprotein E (ApoE) (Plump et al., Cell, 71:343-363 (1992)) are retarded in their acquisition of developmental milestones.\n8 newborn normal mice were injected (s.c. 1.2 μg 120 μu) with St-Lys-Lys-Tyr-Leu-NH2 or with saline. 8 ApoE deficient newborn mice were treated similarly."}, "[4]": {"conditions": "same amounts of radiolabeled conjugate; Gozes et al., Endocrinology 134:2121-2125 (1994); cited from earlier work"}, "[5]": {"assay": "Biodistribution to brain after intranasal application of radioiodinated conjugate", "format": "in vivo, rat", "conditions": "thirty minutes after application, FIG. 15", "method": "St-Lys-Lys-Tyr-Leu-NH2 (SEQ ID NO:6) was radioiodinated by using the chloramine T methods as described in Gozes et al., Endocrinology, 134:2121-2125 (1994) and about 7.8×10^6 cpm/2 μl 5% Sefsol™, 20% isopropanol/rat were applied intranasally to 250-300 g rats. Animals were sacrificed 30 minutes following drug administration and the frontal cortex was removed, weighed and counted for radioactivity in a gamma counter. Radioactive tissue samples (containing 1400 cpm/gram sample) were thereafter homogenized and subjected to centrifugation (5,400 g for 25 min.). Supernatants were then subjected to HPLC analysis against St-Lys-Lys-Tyr-Leu-NH2 (SEQ ID NO:6) as a marker (eluting using an acetonitrile gradient at fraction 25). Samples were monitored for radioactivity in a gamma counter."}}, "note": "Non-standard residues stand in square brackets, D forms with d. Residues, ends and D or L forms follow the SMILES beside them. *: point of attachment. Stearoyl = CCCCCCCCCCCCCCCCCC(=O)*; Lauroyl = CCCCCCCCCCCC(=O)*"}
{"compound": "CCCCCCCCCCCCCCCCCC(=O)N[C@@H](CCCCN)C(=O)N[C@@H](CCCCN)C(=O)N[C@@H](Cc1ccc(O)cc1)C(=O)N[C@H](C)C(N)=O", "note": "[St-Lys-Lys-Tyr-D-Ala-NH2] (Stearoyl-KKY[dA]-NH2)", "values": [{"measurement": "time required to reach the visible platform (possible motor deficits)", "setting": "[1]", "result": "no differences between the groups"}]}
{"compound": "CCCCCCCCCCCC(=O)N[C@@H](CCCCN)C(=O)N[C@@H](CCCCN)C(=O)N[C@@H](Cc1ccc(O)cc1)C(=O)N[C@@H](CC(C)C)C(N)=O", "note": "[Lau-Lys-Lys-Tyr-Leu-NH2] (Lauroyl-KKYL-NH2)", "values": [{"measurement": "Active concentration (M)", "setting": "[2]; added together with 25 μM β-amyloid peptide (25-35), NSE-stained neuron counts", "result": "10^-11 -10^-10 M"}, {"measurement": "Neuronal survival (%)", "setting": "[2]; at the active concentration, with 25 μM β-amyloid peptide (25-35), as compared to control", "result": "83-84%"}]}
{"compound": "St-Nle^17 -VIP-NH2", "values": [{"measurement": "forelimb placing behavior acquisition", "setting": "[3]; versus untreated ApoE deficient mice, FIGS. 10 and 11", "result": "improved their placing acquisition essentially to the level of control"}, {"measurement": "cliff avoidance acquisition", "setting": "[3]; FIGS. 12 and 13", "result": "even better cliff avoidance acquisition than normal controls or similar cliff avoidance behavior to control"}, {"measurement": "radioactivity obtained in the intestine", "setting": "[4]", "result": 3700, "unit": "cpm/g"}]}
{"compound": "CCCCCCCCCCCCCCCCCC(=O)N[C@@H](CCCCN)C(=O)N[C@@H](CCCCN)C(=O)N[C@@H](Cc1ccc(O)cc1)C(=O)N[C@@H](CC(C)C)C(N)=O", "note": "[St-Lys-Lys-Tyr-Leu-NH2] (Stearoyl-KKYL-NH2)", "values": [{"measurement": "intact conjugate in brain extract by HPLC", "setting": "[5]", "result": "could be observed in the brain"}]}
